# Results from patent US6914045B2, “Glycopeptide antibiotics” (Wyeth Holdings Corporation, priority 2001, dated 2005).
# Assays:
# Assay in all cases: in vitro antibacterial evaluation, MIC by broth dilution
# Type in all cases: cell-based
# Escherichia coli = settings: 18 hours at 35° C.
# Method in brief: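 Broth dilution in Muller-Hinton II medium per NCCLS standard M7-A2, with an inoculum of 5×10^5 CFU/mL and antibiotic tested over 64-0.06 μg/mL. MIC was taken as the lowest concentration inhibiting visible growth.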
# Streptococcus sp. = settings: broth dilution, 18 hours at 35° C.
# Method in brief: (§1)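 Inoculum 5×10^5 CFU/mL; concentrations 64 to 0.06 μg/mL; MIC defined as lowest inhibitory level. Conducted by broth dilution under NCCLS guidelines.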
# Staphylococcus sp. = settings: broth dilution, 18 hours at 35° C.; for MIC Staphylococcus aureus (ATCC 29213): strain ATCC 29213; for MIC Staphylococcus aureus (GC 1131): strain GC 1131; for MIC Staphylococcus aureus (GC 3051): strain GC 3051; for MIC Staphylococcus aureus (GC 3053): strain GC 3053; for MIC Staphylococcus aureus (GC 4541): strain GC 4541; for MIC Staphylococcus aureus (GC 4542): strain GC 4542; for MIC Staphylococcus aureus-SMITH (GC 4543): strain GC 4543; for MIC Staphylococcus aureus (GC 4544): strain GC 4544; for MIC Staphylococcus aureus (GC 4545): strain GC 4545; for MIC Staphylococcus haemolyticus (GC 4546): strain GC 4546; for MIC Coagulase Negative Staphylococcus (GC 4547): strain GC 4547; for MIC Coagulase Negative Staphylococcus (GC 4548): strain GC 4548; for MIC Coagulase Negative Staphylococcus (GC 4549): strain GC 4549; for MIC Coagulase Negative Staphylococcus (GC 4551): strain GC 4551; for MIC Coagulase Negative Staphylococcus (GC 6257): strain GC 6257
# Method in brief: as §1
# Enterococcus sp. = settings: broth dilution, 18 hours at 35° C.
# Method in brief: as §1
# [1] = inoculum 5×10^5 CFU/mL, strain ATCC 6301
# [2] = inoculum 5×10^5 CFU/mL, strain GC 1894
# [3] = inoculum 5×10^5 CFU/mL, strain ATCC 29212
# [4] = inoculum 5×10^5 CFU/mL, strain GC 2242
# [5] = inoculum 5×10^5 CFU/mL, strain GC 2243
# [6] = inoculum 5×10^5 CFU/mL, strain GC 4556
# [7] = inoculum 5×10^5 CFU/mL, strain GC 4558
# [8] = inoculum 5×10^5 CFU/mL, strain GC 6189
smiles,measurement,setting,value
"CC(C)C(=O)Nc1cc(CC2NC(=O)C(C(C)c3ccccc3)NC(=O)CNC(=O)C(CO)NC(=O)C(C(O)C3CNC(=N)N3C3OC(CO)C(O)C(O)C3O)NC(=O)C(C(O)C3CNC(=N)N3)NC2=O)ccc1O (stereo not drawn) [Example 15, Cyclo[glycyl-β-methylphenylalanyl-3-(2-methylpropanamido)tyrosyl-3-(2-iminoimidazolidin-4-yl)seryl-3-(3-hexopyranosyl-2-iminoimidazolidin-4-yl)serylseryl]]",MIC Escherichia coli (ATCC 25922),"Escherichia coli; strain ATCC 25922, broth dilution",>128 µg/mL
same,MIC Escherichia coli (GC 4559),"Escherichia coli; strain GC 4559, broth dilution",>128 µg/mL
same,MIC Escherichia coli (GC 4560),"Escherichia coli; strain GC 4560, broth dilution",128 µg/mL
same,MIC Streptococcus pneumoniae (ATCC 6301),Streptococcus sp.; strain ATCC 6301,>128 µg/mL
same,MIC Streptococcus pneumoniae (GC 1894),Streptococcus sp.; strain GC 1894,128 µg/mL
same,MIC Streptococcus pyogenes (GC 4563),Streptococcus sp.; strain GC 4563,>128 µg/mL
same,MIC Streptococcus agalactiae (GC 4564),Streptococcus sp.; strain GC 4564,128 µg/mL
same,MIC Streptococcus pneumoniae (GC 4565),Streptococcus sp.; strain GC 4565,64 µg/mL
same,MIC Staphylococcus aureus (ATCC 29213),Staphylococcus sp.,>128 µg/mL
same,MIC Staphylococcus aureus (GC 1131),Staphylococcus sp.,>128 µg/mL
same,MIC Staphylococcus aureus (GC 3051),Staphylococcus sp.,>128 µg/mL
same,MIC Staphylococcus aureus (GC 3053),Staphylococcus sp.,>128 µg/mL
same,MIC Staphylococcus aureus (GC 4541),Staphylococcus sp.,>128 µg/mL
same,MIC Staphylococcus aureus (GC 4542),Staphylococcus sp.,>128 µg/mL
same,MIC Staphylococcus aureus-SMITH (GC 4543),Staphylococcus sp.,>128 µg/mL
same,MIC Staphylococcus aureus (GC 4544),Staphylococcus sp.,>128 µg/mL
same,MIC Staphylococcus aureus (GC 4545),Staphylococcus sp.,>128 µg/mL
same,MIC Staphylococcus haemolyticus (GC 4546),Staphylococcus sp.,>128 µg/mL
same,MIC Coagulase Negative Staphylococcus (GC 4547),Staphylococcus sp.,>128 µg/mL
same,MIC Coagulase Negative Staphylococcus (GC 4548),Staphylococcus sp.,>128 µg/mL
same,MIC Coagulase Negative Staphylococcus (GC 4549),Staphylococcus sp.,>128 µg/mL
same,MIC Coagulase Negative Staphylococcus (GC 4551),Staphylococcus sp.,>128 µg/mL
same,MIC Coagulase Negative Staphylococcus (GC 6257),Staphylococcus sp.,>128 µg/mL
same,MIC Enterococcus faecalis (ATCC 29212),Enterococcus sp.; strain ATCC 29212,>128 µg/mL
same,MIC Enterococcus faecalis (GC 2242),Enterococcus sp.; strain GC 2242,>128 µg/mL
same,MIC Enterococcus faecium (GC 2243),Enterococcus sp.; strain GC 2243,>128 µg/mL
same,MIC Enterococcus faecalis (GC 2691),Enterococcus sp.; strain GC 2691,>128 µg/mL
same,MIC Enterococcus faecalis (GC 3059),Enterococcus sp.; strain GC 3059,>128 µg/mL
same,MIC Enterococcus faecalis (GC 4552),Enterococcus sp.; strain GC 4552,>128 µg/mL
same,MIC Enterococcus faecalis (GC 4553),Enterococcus sp.; strain GC 4553,>128 µg/mL
same,MIC Enterococcus faecalis (GC 4554),Enterococcus sp.; strain GC 4554,>128 µg/mL
same,MIC Enterococcus faecium (GC 4556),Enterococcus sp.; strain GC 4556,>128 µg/mL
same,MIC Enterococcus faecium (GC 4557),Enterococcus sp.; strain GC 4557,>128 µg/mL
same,MIC Enterococcus avium (GC 4558),Enterococcus sp.; strain GC 4558,128 µg/mL
same,MIC Enterococcus faecalis (GC 6189),Enterococcus sp.; strain GC 6189,>128 µg/mL
CC(c1ccccc1)C1NC(=O)CNC(=O)C(CO)NC(=O)C(C(O)C2CNC(=N)N2C2OC(CO)C(O)C(O)C2O)NC(=O)C(C(O)C2CNC(=N)N2)NC(=O)C(Cc2ccc(OC3OC(CO)C(OC4OC5COC6(CCCCCCCCCCC6)OC5C(O)C4O)C(O)C3O)cc2)NC1=O (stereo not shown) [Example 209],MIC Escherichia coli (ATCC 25922),Escherichia coli,64 µg/mL
same,MIC Escherichia coli (GC 4559),Escherichia coli,>64 µg/mL
same,MIC Escherichia coli (GC 4560),Escherichia coli,4 µg/mL
same,MIC Streptococcus pneumoniae (ATCC 6301),Streptococcus sp.,<0.06 µg/mL
same,MIC Streptococcus pneumoniae (GC 1894),Streptococcus sp.,<0.06 µg/mL
same,MIC Streptococcus pneumoniae (ATCC 6301),Streptococcus sp.; [1],<0.06 µg/mL
same,MIC Streptococcus pneumoniae (GC 1894),Streptococcus sp.; [2],<0.06 µg/mL
same,MIC Staphylococcus aureus (ATCC 29213),Staphylococcus sp.,4 µg/mL
same,MIC Staphylococcus aureus (GC 1131),Staphylococcus sp.,2 µg/mL
same,MIC Staphylococcus aureus (GC 4541),Staphylococcus sp.,2 µg/mL
same,MIC Staphylococcus aureus-SMITH (GC 4543),Staphylococcus sp.,1 µg/mL
same,MIC Coagulase Negative Staphylococcus (GC 4547),Staphylococcus sp.,4 µg/mL
same,MIC Coagulase Negative Staphylococcus (GC 4548),Staphylococcus sp.,1 µg/mL
same,MIC Coagulase Negative Staphylococcus (GC 4549),Staphylococcus sp.,1 µg/mL
same,MIC Coagulase Negative Staphylococcus (GC 6257),Staphylococcus sp.,2 µg/mL
same,MIC Enterococcus avium (GC 4558),Enterococcus sp.,4 µg/mL
same,MIC Enterococcus faecalis (ATCC 29212),Enterococcus sp.,4 µg/mL
same,MIC Enterococcus faecalis (GC 2242),Enterococcus sp.,4 µg/mL
same,MIC Enterococcus faecalis (GC 6189),Enterococcus sp.,1 µg/mL
same,MIC Enterococcus faecium (GC 2243),Enterococcus sp.,1 µg/mL
same,MIC Enterococcus faecium (GC 4556),Enterococcus sp.,4 µg/mL
same,MIC Enterococcus faecalis (ATCC 29212),Enterococcus sp.; [3],4 µg/mL
same,MIC Enterococcus faecalis (GC 2242),Enterococcus sp.; [4],4 µg/mL
same,MIC Enterococcus faecium (GC 2243),Enterococcus sp.; [5],1 µg/mL
same,MIC Enterococcus faecium (GC 4556),Enterococcus sp.; [6],4 µg/mL
same,MIC Enterococcus avium (GC 4558),Enterococcus sp.; [7],4 µg/mL
same,MIC Enterococcus faecalis (GC 6189),Enterococcus sp.; [8],1 µg/mL
CC(c1ccccc1)C1NC(=O)CNC(=O)C(CO)NC(=O)C(C(O)C2CNC(=N)N2C2OC(CO)C(O)C(O)C2O)NC(=O)C(C(O)C2CNC(=N)N2)NC(=O)C(Cc2ccc(OC3OC(CO)C(OC4OC5COC(c6ccccc6)OC5C(O)C4O)C(O)C3O)c(I)c2)NC1=O (stereo not shown) [Example 196],MIC Escherichia coli (ATCC 25922),Escherichia coli,64 µg/mL
same,MIC Escherichia coli (GC 4559),Escherichia coli,64 µg/mL
same,MIC Escherichia coli (GC 4560),Escherichia coli,8 µg/mL
same,MIC Streptococcus agalactiae (GC 4564),Streptococcus sp.,>64 µg/mL
same,MIC Streptococcus pneumoniae (ATCC 6301),Streptococcus sp.,64 µg/mL
same,MIC Streptococcus pneumoniae (GC 1894),Streptococcus sp.,64 µg/mL
same,MIC Streptococcus pneumoniae (GC 4565),Streptococcus sp.,64 µg/mL
same,MIC Streptococcus pyogenes (GC 4563),Streptococcus sp.,32 µg/mL
same,MIC Streptococcus pneumoniae (ATCC 6301),Streptococcus sp.; [1],64 µg/mL
same,MIC Streptococcus pneumoniae (GC 1894),Streptococcus sp.; [2],64 µg/mL
same,MIC Streptococcus pyogenes (GC 4563),"Streptococcus sp.; inoculum 5×10^5 CFU/mL, strain GC 4563",32 µg/mL
same,MIC Streptococcus agalactiae (GC 4564),"Streptococcus sp.; inoculum 5×10^5 CFU/mL, strain GC 4564",>64 µg/mL
same,MIC Streptococcus pneumoniae (GC 4565),"Streptococcus sp.; inoculum 5×10^5 CFU/mL, strain GC 4565",64 µg/mL
same,MIC Staphylococcus aureus (GC 1131),Staphylococcus sp.; inoculum 5×10^5 CFU/mL,>64 µg/mL
same,MIC Staphylococcus aureus (ATCC 29213),Staphylococcus sp.,>64 µg/mL
same,MIC Staphylococcus aureus (GC 1131),Staphylococcus sp.,>64 µg/mL
same,MIC Staphylococcus aureus (GC 3051),Staphylococcus sp.,>64 µg/mL
same,MIC Staphylococcus aureus (GC 3053),Staphylococcus sp.,>64 µg/mL
same,MIC Staphylococcus aureus (GC 4541),Staphylococcus sp.,64 µg/mL
same,MIC Staphylococcus aureus (GC 4542),Staphylococcus sp.,>64 µg/mL
same,MIC Staphylococcus aureus-SMITH (GC 4543),Staphylococcus sp.,>64 µg/mL
same,MIC Staphylococcus aureus (GC 4544),Staphylococcus sp.,>64 µg/mL
same,MIC Staphylococcus aureus (GC 4545),Staphylococcus sp.,64 µg/mL
same,MIC Staphylococcus haemolyticus (GC 4546),Staphylococcus sp.,32 µg/mL
same,MIC Coagulase Negative Staphylococcus (GC 4547),Staphylococcus sp.,32 µg/mL
same,MIC Coagulase Negative Staphylococcus (GC 4548),Staphylococcus sp.,64 µg/mL
same,MIC Coagulase Negative Staphylococcus (GC 4549),Staphylococcus sp.,64 µg/mL
same,MIC Coagulase Negative Staphylococcus (GC 4551),Staphylococcus sp.,>64 µg/mL
same,MIC Coagulase Negative Staphylococcus (GC 6257),Staphylococcus sp.,64 µg/mL
same,MIC Enterococcus avium (GC 4558),Enterococcus sp.,32 µg/mL
same,MIC Enterococcus faecalis (ATCC 29212),Enterococcus sp.,>64 µg/mL
same,MIC Enterococcus faecalis (GC 2242),Enterococcus sp.,>64 µg/mL
same,MIC Enterococcus faecalis (GC 2691),Enterococcus sp.,>64 µg/mL
same,MIC Enterococcus faecalis (GC 3059),Enterococcus sp.,>64 µg/mL
same,MIC Enterococcus faecalis (GC 4552),Enterococcus sp.,>64 µg/mL
same,MIC Enterococcus faecalis (GC 4553),Enterococcus sp.,64 µg/mL
same,MIC Enterococcus faecalis (GC 4554),Enterococcus sp.,>64 µg/mL
same,MIC Enterococcus faecalis (GC 6189),Enterococcus sp.,>64 µg/mL
same,MIC Enterococcus faecium (GC 2243),Enterococcus sp.,64 µg/mL
same,MIC Enterococcus faecium (GC 4556),Enterococcus sp.,>64 µg/mL
same,MIC Enterococcus faecium (GC 4557),Enterococcus sp.,8 µg/mL
same,MIC Enterococcus faecalis (ATCC 29212),Enterococcus sp.; [3],>64 µg/mL
same,MIC Enterococcus faecalis (GC 2242),Enterococcus sp.; [4],>64 µg/mL
same,MIC Enterococcus faecium (GC 2243),Enterococcus sp.; [5],64 µg/mL
same,MIC Enterococcus faecalis (GC 2691),"Enterococcus sp.; inoculum 5×10^5 CFU/mL, strain GC 2691",>64 µg/mL
same,MIC Enterococcus faecalis (GC 3059),"Enterococcus sp.; inoculum 5×10^5 CFU/mL, strain GC 3059",>64 µg/mL
same,MIC Enterococcus faecalis (GC 4552),"Enterococcus sp.; inoculum 5×10^5 CFU/mL, strain GC 4552",>64 µg/mL
same,MIC Enterococcus faecalis (GC 4553),"Enterococcus sp.; inoculum 5×10^5 CFU/mL, strain GC 4553",64 µg/mL
same,MIC Enterococcus faecalis (GC 4554),"Enterococcus sp.; inoculum 5×10^5 CFU/mL, strain GC 4554",>64 µg/mL
same,MIC Enterococcus faecium (GC 4556),Enterococcus sp.; [6],>64 µg/mL
same,MIC Enterococcus faecium (GC 4557),"Enterococcus sp.; inoculum 5×10^5 CFU/mL, strain GC 4557",8 µg/mL
same,MIC Enterococcus avium (GC 4558),Enterococcus sp.; [7],32 µg/mL
same,MIC Enterococcus faecalis (GC 6189),Enterococcus sp.; [8],>64 µg/mL
